Tested on: trypsin
Type: in vitro ADME

bovine serum albumin [BSA]
% Relative Protection (compared with BSA + Trypsin): 0%

Reference: US20210121542A1, “COMPOSITION FOR […] OF PROTEIN TH[…] ORAL, SUBLINGUAL AND BUCCAL ROUTE” (Prime Bio, Inc., priority 2019, published 2021)
